Source: patent publication US20250276993A1, “PSEUDO-DISACCHARIDE COMPOUNDS” (UNIVERSITEIT LEIDEN, priority 2022, published 2025)

Legend:
[1] = system: U87 glioblastoma cells; experiment: Matrigel invasion assay; format: cell-based, human; conditions: 20 μM inhibitor, 4 h
Procedure: The Matrigel invasion assay was used to assess the effects of the compounds of the invention on cancer cell aggression. This is an in cellulo model of cell invasion through a HSPG rich basement membrane. The ability of cells to migrate through transwell inserts coated with Matrigel (an ECM secretion from Engelbreth-Holm-Swarm mouse sarcoma cells) correlates well with their in vivo invasive potential (Hall et al., Methods Mol Biol, 1070, 1-11 (2014)).
1×10^5 U87 cells in 200 μL DMEM media (without serum) were seeded onto the top chamber of a Matrigel-coated Boyden transwell filter, alongside 20 μM HPSE inhibitor (or PBS control). Cells in the upper chamber were separated by Matrigel from a lower chamber containing 600 μL DMEM, supplemented with 10% FBS. Plates were incubated at 37° C. for 4 h, before fixing cells in 4% (v/v) paraformaldehyde, and staining with 0.5% (w/v) crystal violet. Matrigel and non-migrating cells in the upper side of the Boyden filter were removed by swabbing, then invading cells on the bottom side of the transwell filter imaged for analysis. 10 randomly selected microscopic fields were recorded, and cell invasion calculated using ImageJ, by quantitating the percentage of the field stained by crystal violet. Graphs were plotted using RStudio.
The Matrigel invasion assay was used to assess the effects of the compounds of the invention on cancer cell aggression. […]

[2] = system: CAG human myeloma cells; experiment: CAG myeloma metastasis model; format: in vivo, NOD/SCID mice
Procedure: CAG myeloma—Luciferase-labeled CAG human myeloma cells (3×10^6) were injected into the tail vein of NOD/SCID mice. 3-5 days after cell inoculation, mice were randomly assigned to 4 cohorts (6 mice each) receiving: (a) vehicle, (b) compound 2 (i.p. 300 nmol/day), (c) bortezomib (0.5 mg/kg twice weekly) or (d) 2 plus bortezomib (dosing as for individual compounds). Tumor development was inspected (every 7 days) by IVIS imaging as detailed above. Tumor burden was quantified using Living Image software. Plots and statistical analyses were carried out in Prism 9 (Graphpad software).

[3] = system: B16-BL6 melanoma cells; experiment: B16 melanoma experimental lung metastasis model; format: in vivo, C57BL/J6 mice; conditions: after 14 days; 2: 300 nmol/mouse i.p.; SST0001: 150 μg/mouse i.p.; vs PBS-only control
Procedure: B16 melanoma—Twenty minutes before tumor cell inoculation, C57BL/J6 mice (n=5) were injected intraperitoneally with vehicle alone (PBS), compound 2 (300 nmol/mouse), or SST0001 (150 μg/mouse). Mice were subsequently intravenously inoculated with 1.5×10^5 B16-BL6 melanoma cells/mouse in a volume of 100 μL, alongside 20 μM 2 or 10 μg SST0001. Mice were sacrificed after 14 days and the lungs were dissected, photographed and evaluated for the number of metastatic foci/lung.
The compounds of the invention were tested against a B16 murine melanoma experimental metastasis model, which measures the formation of metastatic lung tumors by B16 cancer cells after intravenous (i.v.) injection. Additionally, the compounds of the invention were tested against a second cancer model—4T1 murine mammary carcinoma, which also metastasizes to the lungs upon injection.

[4] = target: T1, HPSE (platelet) (Homo sapiens, UniProt Q9Y251); experiment: cABPP Assay 2, platelet lysates, HPSE; format: biochemical
T1 construct: endogenous in cells; host or cells: human platelet lysates
T1 sequence (Q9Y251 158-543 limits assumed): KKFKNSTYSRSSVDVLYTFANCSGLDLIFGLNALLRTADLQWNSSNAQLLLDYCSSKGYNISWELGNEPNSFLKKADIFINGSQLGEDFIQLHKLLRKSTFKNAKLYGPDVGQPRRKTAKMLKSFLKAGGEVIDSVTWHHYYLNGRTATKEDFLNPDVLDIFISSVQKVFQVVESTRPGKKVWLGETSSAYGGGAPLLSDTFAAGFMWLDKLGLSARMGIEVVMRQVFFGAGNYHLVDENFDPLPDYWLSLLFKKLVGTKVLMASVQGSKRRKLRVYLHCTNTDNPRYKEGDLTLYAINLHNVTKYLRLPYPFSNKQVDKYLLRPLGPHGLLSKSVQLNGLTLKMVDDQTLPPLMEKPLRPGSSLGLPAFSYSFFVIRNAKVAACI
T1 sequence (Q9Y251 36-109 limits assumed): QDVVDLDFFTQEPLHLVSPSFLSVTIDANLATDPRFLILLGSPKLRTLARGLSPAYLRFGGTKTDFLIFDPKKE
Procedure: For further competitive ABPP studies, a working protein mixture was prepared by mixing the platelet lysates (87.5 μL), buffer (pH 5.0, 150 mM, 157.5 μL) and 3 M NaCl solution (35 μL). The enzymatic reactions were carried out at a constant concentration of read-out 7 (100 nM, final). For each inhibitor 2, 12 and 13, triplicate sets of ten 0.5 mL low protein binding Eppendorf tubes were prepared. Working solutions of each inhibitor (1% DMSO (w/v), 5 μL) in a range of ten concentrations (100, 50, 25, 12.5, 6.3, 3.1, 1.6, 0.8, 0.4, 0 μM) were prepared with MilliQ water and kept on ice. The working protein mixture (8 μL) was added in each protein low binding 0.5 mL Eppendorf tube, and 1 μL of inhibitor solution was added while on ice.
Further cABPP studies were undertaken using platelet lysates to provide a more physiologically realistic environment. Platelet lysates contain complex mixtures of overlapping enzyme activities, including both endo- and exo-β-glucuronidases HPSE and GUSB respectively, thus provide a challenging environment to test inhibitor specificity.

[5] = system: 4T1 mouse mammary carcinoma cells; experiment: 4T1 breast cancer lung metastasis model; format: in vivo, Balb/c mice; conditions: 2: 300 nmol/mouse i.p.; SST0001: 150 μg/mouse i.p.; bioluminescence, 14 day timepoint
Procedure: 4T1 breast cancer—Twenty minutes before tumor cell inoculation, Balb/c mice (n=5) were injected intraperitoneally with vehicle alone (PBS), compound 2 (300 nmol/mouse), or SST0001 (150 μg/mouse). Mice were subsequently intravenously inoculated with 1.5×10^5 luciferase tagged 4T1 mouse mammary carcinoma cells/mouse in a volume of 100 μL, alongside 20 μM 2 or 10 μg SST0001.
Bioluminescence imaging of lung metastases produced by luciferase-expressing 4T1 cells was carried out using a highly sensitive, cooled charge-coupled device camera assembled in a specimen box (IVIS; Xenogen Corp, Hopkinton, MA). For this, the tumor-bearing mice were intraperitoneally administered with a luciferase substrate D-luciferin at a dose of 150 mg/kg body weight. The mice were anesthetized and kept in a camera box followed by continuous exposure to isoflurane (EZAnesthesia, Palmer, PA, USA). The tumor burden was quantified using Living Image software (Xenogen) (U. Barash et al., Journal of the National Cancer Institute 110, 1102-1114, 2018; M. Weissmann et al., Proc Natl Acad Sci, 113, 704-709, 2016)
The compounds of the invention were tested against a B16 murine melanoma experimental metastasis model, which measures the formation of metastatic lung tumors by B16 cancer cells after intravenous (i.v.) injection. […]

IC50 ([4]; apparent IC50, in-gel competitive ABPP-based assay, platelet lysate, read-out: In vitro IC50 HPSE (platelet)): 900 ± 300 nM | inhibitor concentration down to which HPSE signal is abrogated ([4]; platelet lysates, preincubation with inhibitor): 2.5 µM
SMILES: CC(=O)NC1C(O)[C@H](O)C(CO)O[C@@H]1O[C@H]1C(O)C(O)[C@@H]2OC2C1C(=O)O (stereo partly drawn) [Compound 2, 4-O-(2-N-acetyl-2-deoxy-D-glucopyranosyl)-glucurono-cyclophellitol]
Matrigel invasion [1]: significantly reduced Matrigel invasion | metastatic burden (CAG myeloma) ([2]; 2: i.p. 300 nmol/day, bortezomib 0.5 mg/kg twice weekly, IVIS imaging): marked reduction in metastatic burden | efficacy at prolonged treatment (CAG myeloma) ([2]; 33 day timepoint): lower efficacy following prolonged treatment | lung metastases (B16) [3]: marked reduction in lung growths | incidence of lung metastases (4T1) [5]: marked reduction in the incidence of lung metastases
